Data taken from patent US11572353B2, “Alkynyl-substituted heterocyclic compound, preparation method therefor and medical use thereof” (BEIJING INNOCARE PHARMA TECH CO., LTD., priority 2016, dated 2023).

How the values were obtained:
[1] = target: human recombinant FGFR2 catalytic domain protein (amino acid 400-821) (Homo sapiens (Human), UniProt P21802); assay: FGFR2 activity inhibition test (HTRF kinase assay); format: biochemical; conditions: 50 μM ATP
Experimental: (§1) The effect of the compounds of the present invention on the in vitro activity of FGFR was assessed by measuring the phosphorylation level of the substrate in a kinase reaction using the HTRF kinase assay kit (Table 1).
(§2) If the IC50 value of a compound is very low, the initial concentration of the compound can be lowered.
(§3) The IC50 value of the compound was calculated from the 10 concentration points using the XLfit software in Excel by the following formula: Y=Bottom+(Top−Bottom)/(1+10^((log IC50−X)*slope factor))
(§4) Where Y is the percentage of inhibition, Bottom is the bottom platform value of the S-curve, Top is the top platform value of the S-curve, X is the logarithm of the concentration of the compound to be tested, and slope factor is the slope coefficient of the curve.

[2] = target: human recombinant FGFR1 catalytic domain protein (amino acid 308-731) (Homo sapiens (Human), UniProt P11362); assay: FGFR1 activity inhibition test (HTRF kinase assay); format: biochemical; conditions: 40 μM ATP
Sequence of human recombinant FGFR1 catalytic domain protein (amino acid 308-731) (P11362 other isoform, or with tags, fused parts or gaps): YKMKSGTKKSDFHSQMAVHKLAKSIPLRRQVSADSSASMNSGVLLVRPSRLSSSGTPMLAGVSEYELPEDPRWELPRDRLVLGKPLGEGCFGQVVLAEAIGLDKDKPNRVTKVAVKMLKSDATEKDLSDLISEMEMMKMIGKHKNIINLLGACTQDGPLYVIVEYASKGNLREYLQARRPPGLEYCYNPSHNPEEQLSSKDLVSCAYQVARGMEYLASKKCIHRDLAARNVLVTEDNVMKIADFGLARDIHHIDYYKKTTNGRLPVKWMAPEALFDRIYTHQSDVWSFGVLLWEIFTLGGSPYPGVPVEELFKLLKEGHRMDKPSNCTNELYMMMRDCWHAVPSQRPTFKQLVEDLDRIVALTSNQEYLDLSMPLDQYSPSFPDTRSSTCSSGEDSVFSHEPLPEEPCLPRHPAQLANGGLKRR
Experimental: as §1, §2, §3, §4

[3] = target: human recombinant FGFR3 catalytic domain protein (amino acid 399-806) (Homo sapiens (Human), UniProt P22607); assay: FGFR3 activity inhibition test (HTRF kinase assay); format: biochemical; conditions: 90 μM ATP
Sequence of human recombinant FGFR3 catalytic domain protein (amino acid 399-806) (P22607 399-806): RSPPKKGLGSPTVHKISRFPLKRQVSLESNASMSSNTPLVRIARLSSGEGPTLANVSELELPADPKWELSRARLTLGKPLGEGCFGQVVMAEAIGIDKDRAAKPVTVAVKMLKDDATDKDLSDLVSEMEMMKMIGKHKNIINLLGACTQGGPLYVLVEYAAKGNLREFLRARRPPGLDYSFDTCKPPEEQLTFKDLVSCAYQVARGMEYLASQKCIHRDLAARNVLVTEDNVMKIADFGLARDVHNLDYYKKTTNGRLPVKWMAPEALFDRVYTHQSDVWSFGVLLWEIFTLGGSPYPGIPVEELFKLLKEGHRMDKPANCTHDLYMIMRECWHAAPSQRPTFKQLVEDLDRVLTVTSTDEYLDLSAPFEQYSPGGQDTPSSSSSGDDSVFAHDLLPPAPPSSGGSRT
Experimental: as §1, §2, §3, §4

[4] = target: human recombinant FGFR4 catalytic domain protein (amino acid 460-802) (Homo sapiens (Human), UniProt P22455); assay: FGFR4 activity inhibition test (HTRF kinase assay); format: biochemical; conditions: 90 μM ATP
Sequence of human recombinant FGFR4 catalytic domain protein (amino acid 460-802) (P22455 460-802): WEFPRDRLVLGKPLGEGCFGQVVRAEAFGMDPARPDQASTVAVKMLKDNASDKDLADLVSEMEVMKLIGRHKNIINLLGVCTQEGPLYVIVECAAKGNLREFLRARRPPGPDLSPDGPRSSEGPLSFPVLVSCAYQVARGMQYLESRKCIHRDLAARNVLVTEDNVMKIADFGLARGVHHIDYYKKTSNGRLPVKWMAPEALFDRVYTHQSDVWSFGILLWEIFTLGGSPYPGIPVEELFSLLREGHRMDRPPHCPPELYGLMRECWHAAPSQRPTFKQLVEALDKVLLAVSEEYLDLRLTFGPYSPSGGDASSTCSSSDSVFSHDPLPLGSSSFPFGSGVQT
Experimental: as §1, §2, §3, §4

[5] = test system: SNU-16 gastric cancer cell line; assay: Inhibition on the proliferation of SNU-16 cells (luminescent cell viability assay); format: cell-based; conditions: Homo sapiens, 72 hours
Experimental: (§5) CellTilter-Glo reagent (Promega, Cat. No. G7572) consists of CTG lyophilized powder and CTG buffer. Before use, the lyophilized powder needs to be dissolved in the buffer.
(§6) After overnight incubation, 3 μL of DMEM diluted compound was added to each well, which was then gently centrifuged to mix well, and then the 384-well plate was placed in a 37° C., 5% CO2 incubator to continue the culture, and after 72 hours, the plate was taken out and allowed to stand at room temperature for 30 minutes, next added 15 μL of CTG reagent per well, which was warmed up to room temperature, the plate was shaken gently on a shaker for 3 minutes to ensure sufficient cell lysis, allowed to stand 10 minutes to stabilize the luminescence signal, and then read the luminescence signal with EnVision (Perkin Elmer).
as §4
The effect of the compounds of the present invention on cell proliferation of SNU-16 gastric cancer cell line was assessed using a luminescent cell viability assay (Table 2).
(§7) For the experimental method, please refer to the method for determining the inhibition on the proliferation of Hep3B cells.

[6] = test system: RT4 bladder cancer cell line; assay: Inhibition on the proliferation of RT4 cells (luminescent cell viability assay); format: cell-based; conditions: Homo sapiens, RT-4, 72 hours
Experimental: as §5, §6, §4
The effect of the compounds of the present invention on cell proliferation of the RT4 bladder cancer cell line was assessed using a luminescent cell viability assay (Table 2).
as §7

Hep3B hepatoma cell line = assay: Inhibition on the proliferation of Hep3B cells (luminescent cell viability assay); format: cell-based; conditions: Homo sapiens, 72 hours
Experimental: The effect of the compounds of the present invention on cell proliferation of Hep3B hepatoma cell line was assessed using a luminescent cell viability assay (Table 2).
as §5, §6, §4

[7] = test system: FGFR2-overexpressed SNU-16 gastric cancer cell line derived xenograft tumors; format: in vivo; conditions: 10 mg/kg oral BID
Experimental: The cells were harvested in 90% confluence and no less than 90% viability, and then counted. […] Mice were inoculated subcutaneously into the right flank with 200 uL of 8×10^6 SNU-16 cells resuspended in 50% Matrigel (purchased from Corning). […] Dosing was initiated on day 0 and effects on tumor growth were evaluated by measuring the percentage of tumor growth inhibition (TGI) at the end of the study. Tolerability was assessed by body weight loss, lethality, and clinical signs of adverse treatment-related side effects. Tumor volume and body weight were measured twice per week during the administration period. The percentage of TGI was determined on day 25 after treatment. The difference between the mean value of tumor volume in the treatment group and that in the vehicle group was analyzed for significance using one-way ANOVA (followed by Dennett's test) at each time point and a P<0.05 was considered to be statistically significant.

Sequence of human recombinant FGFR2 catalytic domain protein (amino acid 400-821) (P21802 400-821): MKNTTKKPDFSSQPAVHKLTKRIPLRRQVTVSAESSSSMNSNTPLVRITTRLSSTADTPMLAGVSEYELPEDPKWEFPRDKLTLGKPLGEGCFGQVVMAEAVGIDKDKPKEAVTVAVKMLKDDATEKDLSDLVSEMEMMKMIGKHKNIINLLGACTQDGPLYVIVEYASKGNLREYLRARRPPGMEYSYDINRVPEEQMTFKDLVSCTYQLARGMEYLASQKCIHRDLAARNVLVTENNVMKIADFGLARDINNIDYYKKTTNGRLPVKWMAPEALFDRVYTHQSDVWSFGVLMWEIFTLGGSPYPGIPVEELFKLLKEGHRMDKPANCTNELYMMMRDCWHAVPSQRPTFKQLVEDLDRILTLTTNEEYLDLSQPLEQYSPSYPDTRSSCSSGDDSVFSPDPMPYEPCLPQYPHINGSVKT

Structure (SMILES)	IC50 [1]	IC50 [2]	IC50 [3]	IC50 [4]	IC50 [5]	IC50 [6]	IC50 (Hep3B hepatoma cell line)	anti-tumor activity [7]
C=CC(=O)N1CC(n2nc(C#Cc3cc(OC)cc(OC)c3)c(C(N)=O)c2N)C1 [Compound 14, 1-(1-acryloylazetidin-3-yl)-5-amino-3-((3,5-dimethoxyphenyl)ethynyl)-1H-pyrazole-4-carboxamide]	< 10 nM	< 10 nM	< 10 nM	< 10 nM				
C=CC(=O)N1CCC(Cn2nc(C#Cc3cc(OC)cc(OC)c3)c(C(N)=O)c2N)C1 (stereo not shown) [Compound 16, 1-((1-acryloylpyrrolidin-3-yl)methyl)-5-amino-3-((3,5-dimethoxyphenyl)ethynyl)-1H-pyrazole-4-carboxamide]	10 to 100 nM	10 to 100 nM	< 10 nM	10 to 100 nM				
C=CC(=O)N1CC[C@H](n2nc(C#Cc3cc(OC)cc(OC)c3)c(C(N)=O)c2NC2CCN(C)CC2)C1 [Compound 34, (S)-1-(1-acryloylpyrrolidin-3-yl)-3-((3,5-dimethoxyphenyl)ethynyl)-5-((1-methylpiperidin-4-yl)amino)-1H-pyrazole-4-carboxamide]	< 10 nM	10 to 100 nM	< 10 nM					
C=CC(=O)N1CC(n2cc(C(N)=O)c(C#Cc3cc(OC)cc(OC)c3)n2)C1 [Compound 3, 1-(1-acryloylazetidin-3-yl)-3-((3,5-dimethoxyphenyl)ethynyl)-1H-pyrazole-4-carboxamide]	10 to 100 nM	100 to 1000 nM	10 to 100 nM	10 to 100 nM				
C=CC(=O)N1CC[C@H](n2nc(C#Cc3cc(C(=O)NC)ccc3Cl)c(C(N)=O)c2N)C1 [Compound 19, (S)-1-(1-acryloylpyrrolidin-3-yl)-5-amino-3-((2-chloro-5-(methylcarbamoyl)phenyl)ethynyl)-1H-pyrazole-4-carboxamide]	< 10 nM	< 10 nM	< 10 nM	< 10 nM	10 to 100 nM			
C=CC(=O)N1CC[C@H](n2nc(C#Cc3cc(Cl)ccc3F)c(C(N)=O)c2N)C1 [Compound 18, (S)-1-(1-acryloylpyrrolidin-3-yl)-5-amino-3-((5-chloro-2-fluorophenyl)ethynyl)-1H-pyrazole-4-carboxamide]	< 10 nM	10 to 100 nM	10 to 100 nM	10 to 100 nM	< 10 nM	10 to 100 nM		
CC#CC(=O)N1CC[C@H](n2nc(C#Cc3cc(OC)cc(OC)c3)c(C(N)=O)c2N)C1 [Compound 10]		10 to 100 nM		10 to 100 nM	< 10 nM	10 to 100 nM	10 to 100 nM	
CCN1CCN(c2ccc(Nc3cc(N(C)C(=O)Nc4c(Cl)c(OC)cc(OC)c4Cl)ncn3)cc2)CC1 [BGJ-398, reference compound]								significant anti-tumor activity
C=CC(=O)N1CC[C@@H](n2nc(C#Cc3cc(OC)cc(OC)c3)c(C(N)=O)c2N)C1 [Compound 13, (R)-1-(1-acryloylpyrrolidin-3-yl)-5-amino-3-((3,5-dimethoxyphenyl)ethynyl)-1H-pyrazole-4-carboxamide]	< 10 nM	10 to 100 nM	< 10 nM	10 to 100 nM				
C=CC(=O)N1CC[C@H](n2nc(C#Cc3cc(OC)cc(OC)c3)c(C(N)=O)c2NCCN2CCOCC2)C1 [Compound 31, (S)-1-(1-acryloylpyrrolidin-3-yl)-3-((3,5-dimethoxyphenyl)ethynyl)-5-((2-morpholinoethyl)amino)-1H-pyrazole-4-carboxamide]	< 10 nM	10 to 100 nM	< 10 nM		< 10 nM	< 10 nM	10 to 100 nM	
COc1cc(C#Cc2nn([C@H]3CCN(C#N)C3)c(N)c2C(N)=O)cc(OC)c1 [Compound 12, (S)-5-amino-1-(1-cyanopyrrolidin-3-yl)-3-((3,5-dimethoxyphenyl)ethynyl)-1H-pyrazole-4-carboxamide]	< 10 nM	100 to 1000 nM	< 10 nM	10 to 100 nM		100 to 1000 nM	100 to 1000 nM	
C=CC(=O)N1CC[C@H](n2nc(C#Cc3cc(OC)cc(OC)c3)c(C(N)=O)c2NCCOC)C1 [Compound 28, (S)-1-(1-acryloylpyrrolidin-3-yl)-3-((3,5-dimethoxyphenyl)ethynyl)-5-((2-methoxyethyl)amino)-1H-pyrazole-4-carboxamide]	10 to 100 nM	10 to 100 nM	< 10 nM	10 to 100 nM	< 10 nM	< 10 nM		
C=CC(=O)N1CCC(n2nc(C#Cc3cc(OC)cc(OC)c3)c(C(N)=O)c2N)CC1 [Compound 15, 1-(1-acryloylpiperidin-4-yl)-5-amino-3-((3,5-dimethoxyphenyl)ethynyl)-1H-pyrazole-4-carboxamide]	10 to 100 nM	100 to 1000 nM	10 to 100 nM	10 to 100 nM				
C=CC(=O)N1CC[C@H](n2nc(C#Cc3cc(OC)cc(C(=O)NC)c3)c(C(N)=O)c2N)C1 [Compound 20, (S)-1-(1-acryloylpyrrolidin-3-yl)-5-amino-3-((3-methoxy-5-(methylcarbamoyl)phenyl)ethynyl)-1H-pyrazole-4-carboxamide]	< 10 nM	< 10 nM	< 10 nM	< 10 nM	10 to 100 nM			
